Experimental data as given in US20110118337A1, “Method of Using Compositions Comprising MIR-192 and/or MIR-215 for the Treatment of Cancer” (Merck Sharp & Dohme Corp., priority 2008, published 2011).

Tested on: HCT116 DICER^ex5 cells
Test: Gene expression profiling (Agilent 44K microarray) after transfection of miR-192/miR-215 duplex mimetics
Type: cell-based, human
Conditions: 10 nM, vs mock-transfected
Protocol: Synthetic duplex mimetics of miR-192 and miR-215 (sequences shown in TABLE 1) or a control target Luciferase siRNA (Luc), shown in TABLE 1, were transfected (10 nM final concentration) into HCT116 DICER^ex5, a human colorectal cancer cell line with hypomorphic DICER function (Cummins, J. M., et al., PNAS 103:3687-3692 (2006)). The transfections were carried out using Lipofectamine RNAiMax (Invitrogen) per the manufacturer's instructions. At 10 and 24 hours post-transfection, total RNA was extracted and gene expression profiling was carried out with the Agilent 44K microarray in comparison to RNA isolated from mock-transfected HCT116DICER^ex5 cells. Microarray analysis was carried out as described in Linsley, P. S., et al., Mol Cell Biol 27:2240-2252 (2007). Gene expression data analysis was done either with the Rosetta Resolver gene expression analysis software (Version 7.1 Rosetta Biosoftware).

## miR-215: Synthetic duplex mimetic of miR-215, guide AUGACCUAUGAAUUGACAGAC (SEQ ID NO:4), passenger SEQ ID NO:10 (sense CUGUCAAUUCAUAGGUCUUAU; listed as RNA, chemistry not given here; listed as Homo sapiens)
10 hr
  BCL2 transcript fold change: −1.09 fold change
  BRCA1 transcript fold change: −1.04 fold change
  CDC7 transcript fold change: −1.54 fold change
  CDC14A transcript fold change: −1.05 fold change
  CDC73 transcript fold change: −1.04 fold change
  CRK transcript fold change: −1.43 fold change
  CTCF transcript fold change: −1.53 fold change
  CUL5 transcript fold change: −1.25 fold change
  DBF4B transcript fold change: −1.07 fold change
  DEK transcript fold change: −1.19 fold change
  DLG5 transcript fold change: −1.89 fold change
  DTL transcript fold change: −1.19 fold change
  EMP1 transcript fold change: 1.11 fold change
  ERCC3 transcript fold change: −1.25 fold change
  EXTL2 transcript fold change: −1.32 fold change
  FGF2 transcript fold change: −1.67 fold change
  HOXA10 transcript fold change: −1.74 fold change
  HRH1 transcript fold change: −1.52 fold change
  KIF14 transcript fold change: 1.01 fold change
  KIF23 transcript fold change: 1.01 fold change
  LMNB2 transcript fold change: −1.55 fold change
  MACF1 transcript fold change: −1.17 fold change
  MAD2L transcript fold change: −1.31 fold change
  MCM3 transcript fold change: −1.56 fold change
  MCM6 transcript fold change: −1.04 fold change
  MCM10 transcript fold change: −1.97 fold change
  MIS12 transcript fold change: −1.28 fold change
  MKI67 transcript fold change: −1.04 fold change
  MPHOSPH1 transcript fold change: −1.46 fold change
  MTSS1 transcript fold change: −1.07 fold change
  NBN transcript fold change: −1.39 fold change
  NCAPH transcript fold change: −1.02 fold change
  NEK1 transcript fold change: −1.16 fold change
  NFIB transcript fold change: −1.38 fold change
  NFYA transcript fold change: −1.25 fold change
  NIN transcript fold change: −1.12 fold change
  PAFAH1B1 transcript fold change: −1.31 fold change
  PAPD5 transcript fold change: −1.31 fold change
  PFTK1 transcript fold change: 1.05 fold change
  PIM1 transcript fold change: −1.13 fold change
  PLAU transcript fold change: −1.77 fold change
  PLS3 transcript fold change: −1.56 fold change
  POLQ transcript fold change: −1.1 fold change
  POLS transcript fold change: −1.17 fold change
  PPP1CA transcript fold change: −1.76 fold change
  PRPF38A transcript fold change: −1.09 fold change
  RACGAP1 transcript fold change: −1.31 fold change
  RAD1 transcript fold change: −1.12 fold change
  RAD21 transcript fold change: −1.32 fold change
  RAD51 transcript fold change: 1.05 fold change
  RAP1GAP transcript fold change: −1.21 fold change
  RB1 transcript fold change: −1.25 fold change
  SEPT10 transcript fold change: −1.6 fold change
  SERTAD2 transcript fold change: −1.09 fold change
  SH3BP4 transcript fold change: −1.38 fold change
  SMARCB1 transcript fold change: −1.42 fold change
  TDG transcript fold change: −1.54 fold change
  TDP1 transcript fold change: −1.5 fold change
  TOP1 transcript fold change: −1.64 fold change
  TUBGCP3 transcript fold change: −1.41 fold change
  USP1 transcript fold change: −1.16 fold change
  UVRAG transcript fold change: −1.17 fold change
24 hr
  BCL2 transcript fold change: −1.59 fold change
  BRCA1 transcript fold change: −1.43 fold change
  CDC7 transcript fold change: −2.04 fold change
  CDC14A transcript fold change: −1.2 fold change
  CDC73 transcript fold change: −1.1 fold change
  CRK transcript fold change: −1.52 fold change
  CTCF transcript fold change: −1.66 fold change
  CUL5 transcript fold change: −1.37 fold change
  DBF4B transcript fold change: −1.33 fold change
  DEK transcript fold change: −1.42 fold change
  DLG5 transcript fold change: −2.03 fold change
  DTL transcript fold change: −1.46 fold change
  EMP1 transcript fold change: 1.04 fold change
  ERCC3 transcript fold change: −1.36 fold change
  EXTL2 transcript fold change: −1.59 fold change
  FGF2 transcript fold change: −2.12 fold change
  HOXA10 transcript fold change: −2.57 fold change
  HRH1 transcript fold change: −1.63 fold change
  KIF14 transcript fold change: −1.53 fold change
  KIF23 transcript fold change: −1.36 fold change
  LMNB2 transcript fold change: −1.92 fold change
  MACF1 transcript fold change: −1.55 fold change
  MAD2L transcript fold change: −1.84 fold change
  MCM3 transcript fold change: −1.96 fold change
  MCM6 transcript fold change: −1.4 fold change
  MCM10 transcript fold change: −2.67 fold change
  MIS12 transcript fold change: −1.77 fold change
  MKI67 transcript fold change: −1.52 fold change
  MPHOSPH1 transcript fold change: −1.94 fold change
  MTSS1 transcript fold change: −1.29 fold change
  NBN transcript fold change: −1.41 fold change
  NCAPH transcript fold change: −1.32 fold change
  NEK1 transcript fold change: −1.35 fold change
  NFIB transcript fold change: −1.91 fold change
  NFYA transcript fold change: −1.18 fold change
  NIN transcript fold change: −1.42 fold change
  PAFAH1B1 transcript fold change: −1.6 fold change
  PAPD5 transcript fold change: −1.22 fold change
  PFTK1 transcript fold change: −1.28 fold change
  PIM1 transcript fold change: −1.65 fold change
  PLAU transcript fold change: −1.91 fold change
  PLS3 transcript fold change: −1.84 fold change
  POLQ transcript fold change: −1.23 fold change
  POLS transcript fold change: −1.38 fold change
  PPP1CA transcript fold change: −2.42 fold change
  PRPF38A transcript fold change: −1.17 fold change
  RACGAP1 transcript fold change: −1.84 fold change
  RAD1 transcript fold change: −1.38 fold change
  RAD21 transcript fold change: −1.52 fold change
  RAD51 transcript fold change: −1.35 fold change
  RAP1GAP transcript fold change: −1.35 fold change
  RB1 transcript fold change: −1.39 fold change
  SEPT10 transcript fold change: −1.95 fold change
  SERTAD2 transcript fold change: −1.1 fold change
  SH3BP4 transcript fold change: −1.67 fold change
  SMARCB1 transcript fold change: −1.42 fold change
  TDG transcript fold change: −1.55 fold change
  TDP1 transcript fold change: −1.8 fold change
  TOP1 transcript fold change: −1.76 fold change
  TUBGCP3 transcript fold change: −1.73 fold change
  USP1 transcript fold change: −1.38 fold change
  UVRAG transcript fold change: −1.43 fold change
